For test [1], the system named is NCI-H358 cells (KRAS G12C). The test can be described thus: Cell viability assay (Cell Counting Kit-8), KRAS G12C. The following applies: Homo sapiens, NCI-H358, 72 hrs. It is filed as cell-based. As to the method: (§1) The purpose of this cellular assay was to determine the effects of test compounds on the proliferation of human cancer cell lines NCI-H358 (ATCC-CRL5807) cells, AGS (ATCC-CRL-1739) cells, SW620 (ATCC-CCL-227) over a 3-day treatment period by quantifying the amount of NADPH present at endpoint using Cell Counting Kit-8.
(§2) Cells were seeded at 5,000 cells/well (NCI-H358), 2,000 cells/well (AGS)2,000 cells/well (SW620) in 96-well assay plates (Corning-3699) and incubated overnight. On the day of the assay, diluted compounds were then added in a final concentration of 0.5% DMSO. After 72 hrs incubation, a tenth of the volume of cell counting kit 8 (Dnjindo-CK04) was added into each well. Read the signal (OD450 minus OD650) using EnVision after 2 hrs incubation. IC50 was determined by fitting a 4-parameter sigmoidal concentration response model.

A further test deals with AGS cells (KRAS G12D). In words: Cell viability assay (Cell Counting Kit-8), KRAS G12D. The format is cell-based. The following applies: Homo sapiens, 72 hrs. As for the experimental part:
as §1, §2

The next test relates to SW620 cells (KRAS G12V). The test can be described thus: Cell viability assay (Cell Counting Kit-8), KRAS G12V. The format is cell-based. To be noted: Homo sapiens, SW-620, SW620, 72 hrs. As to the method: as §1, §2
A further test has as its target KRAS G12C-BRAF complex (Homo sapiens (Human), UniProt P01116+P62937, G12C). In words: KRAS-BRAF with CYPA (500 nM) interaction assay (TR-FRET), G12C. The format is biochemical. As to the method: (§3) Kras-BRAF with CYPA (500 nM) Interaction Assay In this example, TR-FRET was also used to measure the compound or compound-CYPA dependent disruption of the KRAS G12C-BRAF complex. This protocol was also used to measure disruption of KRAS G12D or KRAS G12V binding to BRAF by a compound of the invention, respectively. […] Compound was present in plate wells as a 16-point 3-fold dilution series starting at a final concentration of 10 μM and incubated for 3 hours. […] TR-FRET signal was read on a […] microplate reader (Ex320 nm, Em 665/615 nm). Compounds that facilitate disruption of the KRAS-BRAF complex were identified as those eliciting a decrease in the TR-FRET ratio relative to DMSO control wells.
A general note: TR-FRET usually uses a lanthanide donor and a delayed reading to cut background.

The next test concerns the target KRAS G12D-BRAF complex (Homo sapiens (Human), UniProt P01116+P62937, G12D). The test can be described thus: KRAS-BRAF with CYPA (500 nM) interaction assay (TR-FRET), G12D. It is filed as biochemical. As to the method:
as §3

Another test deals with KRAS G12V-BRAF complex (Homo sapiens (Human), UniProt P01116+P62937, G12V). The test can be described thus: KRAS-BRAF with CYPA (500 nM) interaction assay (TR-FRET), G12V. It is filed as biochemical. As for the experimental part:
as §3

Test [2] deals with phosphorylation of ERK, KRAS G12C in NCI-H358 cells. The test can be described thus: pERK inhibition assay, KRAS G12C in NCI-H358 cells. The format is cell-based, human. To be noted: Homo sapiens, NCI-H358, 4 hours. As to the method: (§4) This assay is to measure the ability of test compounds in inhibiting the phosphorylation of ERK, the downstream signaling of KRAS G12C in NCI-H358 cells, KRAS G12D in AGS cells, and KRAS G12V in SW620. NCI-H358 (ATCC-CRL5807) cells, AGS (ATCC-CRL-1739) cells, SW620 (ATCC-CCL-227) cells were all grown and maintained using RPMI-1640 medium (Thermo Fisher Scientific) with 10% fetal bovine serum and 1% penicillin/streptomycin. On the day prior to compound addition, cells were plated in tissue culture-treated 96 well plates (Corning-3699) at a density of 30,000 cell/well, 20,000 cell/well, 30,000 cell/well for NCI-H358, AGS and SW620 respectively, and allowed for attachment overnight. Diluted compounds were then added in a final concentration of 0.5% DMSO. After 4 hours of incubation, the medium was removed, 100 μL of 4% formaldehyde was added, and the assay plates were incubated at room temperature for 20 minutes. The plates were then washed once with phosphate buffered saline (PBS), and permeabilized with 100 μL of chilled methanol for 10 minutes. Non-specific antibody binding to the plates was blocked using 50 μL 1X BSA blocking buffer (Thermo-37520, 10-fold dilution by Phosphate-Buffered Saline Tween (PBST) for at least 1 hour at room temperature.
(§5) The amount of phosphor-ERK was determined using an antibody specific for phosphorylated form of ERK. Primary antibody (PERK, CST-4370, Cell Signaling Technology) was diluted 1:300 in blocking buffer, with 50 μL aliquoted to each well, and incubated overnight at 4° C. Cells was washed five times for 5 minutes with PBST. Secondary antibody (HRP-linked anti-rabbit IgG, CST-7074, Cell Signaling Technology) was diluted 1:1000 in blocking buffer, and 50 μL was added to each well and incubated 1-2 hrs at room temperature. Cells was washed […] for 5 minutes with PBST, 100 μL TMB ELISA substrate (abcam-ab171523) were added and gently shake for 20 minutes. 50 μL stop solution (abcam-ab171529) were added, and then read the signal (OD450) by EnVision.
(§6) IC50 was determined by fitting a 4-parameter sigmoidal concentration response model.

In test [3] the test system is phosphorylation of ERK, KRAS G12D in AGS cells. In words: pERK inhibition assay, KRAS G12D in AGS cells. It is filed as cell-based, human. To be noted: Homo sapiens, 4 hours. As to the method:
as §4, §5, §6

Test [4] deals with phosphorylation of ERK, KRAS G12V in SW620 cells. In words: pERK inhibition assay, KRAS G12V in SW620. The format is cell-based, human. The following applies: Homo sapiens, SW-620, SW620, 4 hours. As to the method:
as §4, §5, §6

Chain of KRAS G12C-BRAF complex (P01116-2 other isoform, or with tags, fused parts or gaps G12C): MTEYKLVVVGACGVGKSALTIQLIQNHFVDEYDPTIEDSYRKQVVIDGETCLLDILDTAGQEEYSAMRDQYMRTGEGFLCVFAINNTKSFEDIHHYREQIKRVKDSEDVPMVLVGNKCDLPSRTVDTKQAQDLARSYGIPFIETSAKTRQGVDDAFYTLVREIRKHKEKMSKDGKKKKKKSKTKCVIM
Chain of KRAS G12C-BRAF complex (P62937 whole entry): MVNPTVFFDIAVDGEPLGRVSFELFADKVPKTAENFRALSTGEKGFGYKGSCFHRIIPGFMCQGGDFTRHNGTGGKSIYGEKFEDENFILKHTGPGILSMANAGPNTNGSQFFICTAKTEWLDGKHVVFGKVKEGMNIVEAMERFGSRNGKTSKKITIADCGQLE
Chain of KRAS G12V-BRAF complex (P01116-2 other isoform, or with tags, fused parts or gaps G12V): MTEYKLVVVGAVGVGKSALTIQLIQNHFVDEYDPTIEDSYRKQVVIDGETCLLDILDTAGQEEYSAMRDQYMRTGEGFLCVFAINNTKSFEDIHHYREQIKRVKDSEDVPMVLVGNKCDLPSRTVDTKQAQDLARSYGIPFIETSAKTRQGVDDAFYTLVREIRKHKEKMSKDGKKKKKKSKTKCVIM
Chain of KRAS G12V-BRAF complex (P62937 whole entry): as the sequence (P62937 whole entry) above
Chain of KRAS G12D-BRAF complex (P01116-2 other isoform, or with tags, fused parts or gaps G12D): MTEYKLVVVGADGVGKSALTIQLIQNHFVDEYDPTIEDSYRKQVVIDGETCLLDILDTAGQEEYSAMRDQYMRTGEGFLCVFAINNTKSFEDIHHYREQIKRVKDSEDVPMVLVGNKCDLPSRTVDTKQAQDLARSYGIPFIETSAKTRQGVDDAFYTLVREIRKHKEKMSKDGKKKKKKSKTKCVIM
Chain of KRAS G12D-BRAF complex (P62937 whole entry): as the sequence (P62937 whole entry) above

`CO[C@@H](C)c1ncc(N2CCN(C)CC2)cc1-c1c2c3cc(c(F)cc3n1CC(F)(F)F)-c1csc(n1)C[C@H](NC(=O)[C@H](C(C)C)N(C)C(=O)N1CC(N(C)C)C1)C(=O)N1CCC[C@H](N1)C(=O)OCC(C)(C)C2` (atropisomer, axis not shown; (M)) [Example 1, 3-(dimethylamino)-N-[(1S)-1-[[(7S,13S)-24-fluoro-(20M)-20-[2-[(1S)-1-methoxyethyl]-5-(4-methylpiperazin-1-yl)-3-pyridyl]-17,17-dimethyl-8,14-dioxo-21-(2,2,2-trifluoroethyl)-15-oxa-4-thia-9,21,27,28-tetrazapentacyclo[17.5.2.1^2,5.1^9,13.0^22,26]octacosa-1(25),2,5 (28),19,22 (26),23-hexaen-7-yl]carbamoyl]-2-methyl-propyl]-N-methyl-azetidine-1-carboxamide]: the IC50 (commonly the point on the concentration scale where inhibition reaches its midpoint) is 2 nM in test [1]; 13 nM in the test on AGS cells (KRAS G12D); 1 nM in the test on SW620 cells (KRAS G12V); 46 nM at KRAS G12C-BRAF complex; 147 nM against KRAS G12D-BRAF complex; 70 nM at KRAS G12V-BRAF complex. In addition, the IC50 in test [2] was 1 nM; in [3], 2 nM; in [4], 1 nM.

Turning to `CCn1c(-c2cc(N3CCOCC3)cnc2[C@H](C)OC)c2c3cc(c(F)cc31)-c1csc(n1)C[C@H](NC(=O)[C@H](C(C)C)N(C)C(=O)N1CC(F)(F)C1)C(=O)N1CCC[C@H](N1)C(=O)OCC(C)(C)C2` (atropisomer, axis not shown; (M)) [Example 7, N-[(1S)-1-[[(7S,13S)-21-ethyl-24-fluoro-(20M)-20-[2-[(1S)-1-methoxyethyl]-5-morpholino-3-pyridyl]-17,17-dimethyl-8,14-dioxo-15-oxa-4-thia-9,21,27,28-tetrazapentacyclo[17.5.2.1^2,5.1^9,13.0^22,26]octacosa-1 (25),2,5 (28),19,22 (26),23-hexaen-7-yl]carbamoyl]-2-methyl-propyl]-3,3-difluoro-N-methyl-azetidine-1-carboxamide], the IC50 at KRAS G12C-BRAF complex is 95 nM; on KRAS G12D-BRAF complex it was 472 nM; against KRAS G12V-BRAF complex it was 611 nM.

`CCn1c(-c2cc(N3CCN(CC(F)(F)F)CC3)cnc2[C@H](C)OC)c2c3cc(c(F)cc31)-c1csc(n1)C[C@H](NC(=O)[C@H](C(C)C)N(C)C(=O)N1CCOCC1)C(=O)N1CCC[C@H](N1)C(=O)OCC(C)(C)C2` (atropisomer, axis not shown; (M)) [Example 9, N-[(1S)-1-[[(7S,13S)-21-ethyl-24-fluoro-(20M)-20-[2-[(1S)-1-methoxyethyl]-5-[4-(2,2,2-trifluoroethyl)piperazin-1-yl]-3-pyridyl]-17,17-dimethyl-8,14-dioxo-15-oxa-4-thia-9,21,27,28-tetrazapentacyclo[17.5.2.1^2,5.1^9,13.0^22,26]octacosa-1 (25),2,5 (28),19,22 (26),23-hexaen-7-yl]carbamoyl]-2-methyl-propyl]-N-methyl-morpholine-4-carboxamide]: the IC50 in [1] stood at 24 nM; in the test with AGS cells (KRAS G12D) it was 91 nM; with SW620 cells (KRAS G12V) it was 14 nM; against KRAS G12C-BRAF complex, 49 nM; at KRAS G12D-BRAF complex, 225 nM; against KRAS G12V-BRAF complex, 124 nM. Further, the IC50 in test [2] was determined as 24 nM; in [3] it was 23 nM; in test [4], 9 nM.

`CCn1c(-c2cc(N3CCN(C)CC3)cnc2[C@H](C)OC)c2c3cc(c(F)cc31)-c1csc(n1)C[C@H](NC(=O)[C@H](C(C)C)N(C)C(=O)N1CCOCC1)C(=O)N1CCC[C@H](N1)C(=O)OCC(C)(C)C2` (atropisomer, axis not shown; (M)) [Example 10, N-[(1S)-1-[[(7S,13S)-21-ethyl-24-fluoro-(20M)-20-[2-[(1S)-1-methoxyethyl]-5-(4-methylpiperazin-1-yl)-3-pyridyl]-17,17-dimethyl-8,14-dioxo-15-oxa-4-thia-9,21,27,28-tetrazapentacyclo[17.5.2.1^2,5.1^9,13.0^22,26]octacosa-1 (25),2,5 (28),19,22 (26),23-hexaen-7-yl]carbamoyl]-2-methyl-propyl]-N-methyl-morpholine-4-carboxamide]: the IC50 was found to be 6 nM in test [1]; 40 nM in the test on AGS cells (KRAS G12D); 6 nM in the test with SW620 cells (KRAS G12V); 61 nM on KRAS G12C-BRAF complex; 186 nM against KRAS G12D-BRAF complex; 149 nM against KRAS G12V-BRAF complex. Further, the figures for the IC50 in [2], in test [3] and in [4] were 14 nM, 8 nM and 6 nM, respectively.

In the case of `CO[C@@H](C)c1ncc(N2CCOCC2)cc1-c1c2c3cc(c(F)cc3n1CC(F)(F)F)-c1csc(n1)C[C@H](NC(=O)[C@H](C(C)C)N(C)C(=O)N1CCOCC1)C(=O)N1CCC[C@H](N1)C(=O)OCC(C)(C)C2` (atropisomer, axis not shown; (M)) [Example 11, N-[(1S)-1-[[(7S,13S)-24-fluoro-20-(20M)-[2-[(1S)-1-methoxyethyl]-5-morpholino-3-pyridyl]-17,17-dimethyl-8,14-dioxo-21-(2,2,2-trifluoroethyl)-15-oxa-4-thia-9,21,27,28-tetrazapentacyclo[17.5.2.1^2,5.1^9,13.0^22,26]octacosa-1(25),2,5(28),19,22(26),23-hexaen-7-yl]carbamoyl]-2-methyl-propyl]-N-methyl-morpholine-4-carboxamide], the concentration for half-maximal inhibition (IC50) in test [1] worked out at 2 nM; in the test on AGS cells (KRAS G12D), 6 nM; in the test with SW620 cells (KRAS G12V) it was 1 nM; at KRAS G12C-BRAF complex, 24 nM; on KRAS G12D-BRAF complex, 112 nM; against KRAS G12V-BRAF complex, 59 nM. The IC50 is 3 nM in test [2], 1 nM in test [3] and 1 nM in [4].

Values taken from US20250268894A1, “MACROCYCLE COMPOUNDS FOR THE TREATMENT OF CANCER” (Hoffmann-La Roche Inc., priority 2022, published 2025).
